Experimental data: patent publication US10750743B2, “Pyridazinone herbicides” (E.I. DU PONT DE NEMOURS AND COMPANY, priority 2015, dated 2020)

Tests used:
Assay type in all cases: in vivo
[1] = system: pigweed (Amaranthus retroflexus); assay: Test A preemergence, directed soil spray, visual injury rating; conditions: 0 is no effect, 100 is complete control
Text: (§1) Seeds of plant species selected from barnyardgrass (Echinochloa crus-galli), kochia (Kochia scoparia), ragweed (common ragweed, Ambrosia elatior), ryegrass, It. (Italian ryegrass, Lolium multiflorum), foxtail, giant (giant foxtail, Setaria faberii), and pigweed (Amaranthus retroflexus), were planted into a blend of loam soil and sand and treated preemergence with a directed soil spray using test chemicals formulated in a non-phytotoxic solvent mixture which included a surfactant.
(§2) At the same time, plants selected from these weed species and also wheat (Triticum aestivum), corn (Zea mays), blackgrass (Alopecurus myosuroides), and galium (catchweed bedstraw, Galium aparine), were planted in pots containing the same blend of loam soil and sand and treated with postemergence applications of test chemicals formulated in the same manner Plants ranged in height from 2 to 10 cm and were in the one- to two-leaf stage for the postemergence treatment. Treated plants and untreated controls were maintained in a greenhouse for approximately 10 d, after which time all treated plants were compared to untreated controls and visually evaluated for injury. Plant response ratings, summarized in Table A, are based on a 0 to 100 scale where 0 is no effect and 100 is complete control. A dash (-) response means no test result.

[2] = system: ragweed (common ragweed, Ambrosia elatior); assay: as above; conditions: 0 is no effect, 100 is complete control
Text: as §1, §2

[3] = system: barnyardgrass (Echinochloa crus-galli); assay: as above; conditions: 0 is no effect, 100 is complete control
Text: as §1, §2

[4] = system: ryegrass, It. (Italian ryegrass, Lolium multiflorum); assay: as above; conditions: 0 is no effect, 100 is complete control
Text: as §1, §2

[5] = system: foxtail, giant (giant foxtail, Setaria faberii); assay: as above; conditions: 0 is no effect, 100 is complete control
Text: as §1, §2

[6] = system: kochia (Kochia scoparia); assay: as above; conditions: 0 is no effect, 100 is complete control
Text: as §1, §2

[7] = system: pigweed (Amaranthus retroflexus); assay: Test A postemergence application, visual injury rating; conditions: for Pigweed plant response rating: 0 to 100 scale, 0 no effect, 100 complete control
Text: as §1, §2

[8] = system: galium (catchweed bedstraw, Galium aparine); assay: as above; conditions: for Galium plant response rating: 0 to 100 scale, 0 no effect, 100 complete control
Text: as §1, §2

[9] = system: ragweed (common ragweed, Ambrosia elatior); assay: as above; conditions: for Ragweed plant response rating: 0 to 100 scale, 0 no effect, 100 complete control
Text: as §1, §2

[10] = system: blackgrass (Alopecurus myosuroides); assay: as above; conditions: 0 to 100 scale, 0 no effect, 100 complete control
Text: as §1, §2

[11] = system: barnyardgrass (Echinochloa crus-galli); assay: as above; conditions: 0 to 100 scale, 0 no effect, 100 complete control
Text: as §1, §2

[12] = system: wheat (Triticum aestivum); assay: as above; conditions: for Wheat plant response rating: 0 to 100 scale, 0 no effect, 100 complete control
Text: as §1, §2

[13] = system: ryegrass, It. (Italian ryegrass, Lolium multiflorum); assay: as above; conditions: for Ryegrass, It. plant response rating: 0 to 100 scale, 0 no effect, 100 complete control
Text: as §1, §2

[14] = system: foxtail, giant (giant foxtail, Setaria faberii); assay: as above; conditions: for Foxtail, Giant plant response rating: 0 to 100 scale, 0 no effect, 100 complete control
Text: as §1, §2

[15] = system: kochia (Kochia scoparia); assay: as above; conditions: 0 to 100 scale, 0 no effect, 100 complete control
Text: as §1, §2

[16] = system: corn (Zea mays); assay: as above; conditions: for Corn plant response rating: 0 to 100 scale, 0 no effect, 100 complete control
Text: as §1, §2

[17] = system: rice (Oryza sativa); assay: Test B flooded paddy test, visual rating; conditions: Flood, 250 g ai/ha, applied to paddy water, rated after 13 to 15 d
Protocol: (§3) Plant species in the flooded paddy test selected from rice (Oryza sativa), sedge, umbrella (small-flower umbrella sedge, Cyperus difformis), ducksalad (Heteranthera limosa), and barnyardgrass (Echinochloa crus-galli) were grown to the 2-leaf stage for testing. At time of treatment, test pots were flooded to 3 cm above the soil surface, treated by application of test compounds directly to the paddy water, and then maintained at that water depth for the duration of the test. Treated plants and controls were maintained in a greenhouse for 13 to 15 d, after which time all species were compared to controls and visually evaluated. Plant response ratings, summarized in Table B, are based on a scale of 0 to 100 where 0 is no effect and 100 is complete control. A dash (-) response means no test result.

[18] = system: ducksalad (Heteranthera limosa); assay: Test B flooded paddy test, visual rating; conditions: Flood, 250 g ai/ha, applied to paddy water, rated after 13 to 15 d
Protocol: as §3

[19] = system: barnyardgrass (Echinochloa crus-galli); assay: Test B flooded paddy test, visual rating; conditions: Flood, 250 g ai/ha, applied to paddy water, rated after 13 to 15 d
Protocol: as §3

[20] = system: sedge, umbrella (small-flower umbrella sedge, Cyperus difformis); assay: Test B flooded paddy test, visual rating; conditions: Flood, 250 g ai/ha, applied to paddy water, rated after 13 to 15 d
Protocol: as §3

[21] = 31 g ai/ha, 0 is no effect, 100 is complete control

SMILES	Plant response rating (0 to 100 scale), Pigweed ([1]; 125 g ai/ha)	Plant response rating (0 to 100 scale), Pigweed ([1]; 500 g ai/ha)	Plant response rating (0 to 100 scale), Ragweed ([2]; 125 g ai/ha)	Plant response rating (0 to 100 scale), Barnyardgrass ([3]; 125 g ai/ha)	Plant response rating (0 to 100 scale), Ryegrass, It. ([4]; 125 g ai/ha)	Plant response rating (0 to 100 scale), Foxtail, Giant ([5]; 125 g ai/ha)	Plant response rating (0 to 100 scale), Kochia ([6]; 125 g ai/ha)	Pigweed plant response rating ([7]; 125 g ai/ha)	Galium plant response rating ([8]; 125 g ai/ha)	Ragweed plant response rating ([9]; 125 g ai/ha)	Blackgrass plant response rating ([10]; 125 g ai/ha)	Barnyardgrass plant response rating ([11]; 125 g ai/ha)	Wheat plant response rating ([12]; 125 g ai/ha)	Ryegrass, It. plant response rating ([13]; 125 g ai/ha)	Foxtail, Giant plant response rating ([14]; 125 g ai/ha)	Kochia plant response rating ([15]; 125 g ai/ha)	Corn plant response rating ([16]; 125 g ai/ha)	Rice plant response rating (0 to 100 scale, 0 is no effect, 100 is complete control) [17]	Ducksalad plant response rating (0 to 100 scale, 0 is no effect, 100 is complete control) [18]	Barnyardgrass plant response rating (0 to 100 scale, 0 is no effect, 100 is complete control) [19]	other results
CCC(=O)Oc1c(C)nn(C)c(=O)c1-c1c(C)ccc2sccc12 [Compound 31]	90	100	20	10	90	10	20	90	90	70	50	10	20	100	10	90	20	0	0	0	Plant response rating (0 to 100 scale), Ragweed ([2]; 500 g ai/ha): 90; Plant response rating (0 to 100 scale), Barnyardgrass ([3]; 500 g ai/ha): 90; Plant response rating (0 to 100 scale), Ryegrass, It. ([4]; 500 g ai/ha): 100; Plant response rating (0 to 100 scale), Foxtail, Giant ([5]; 500 g ai/ha): 90; Plant response rating (0 to 100 scale), Kochia ([6]; 500 g ai/ha): 90; Pigweed plant response rating ([7]; 500 g ai/ha): 90; Galium plant response rating ([8]; 500 g ai/ha): 100; Ragweed plant response rating ([9]; 500 g ai/ha): 80; Blackgrass plant response rating ([10]; 500 g ai/ha): 60; Barnyardgrass plant response rating ([11]; 500 g ai/ha): 60; Wheat plant response rating ([12]; 500 g ai/ha): 30; Ryegrass, It. plant response rating ([13]; 500 g ai/ha): 100; Foxtail, Giant plant response rating ([14]; 500 g ai/ha): 80; Kochia plant response rating ([15]; 500 g ai/ha): 100; Corn plant response rating ([16]; 500 g ai/ha): 40; Sedge, Umbrella plant response rating (0 to 100 scale, 0 is no effect, 100 is complete control) [20]: 0
CC(=O)Oc1c(Cl)nn(C)c(=O)c1-c1cccc2cccnc12 [Compound 71]	60		10	20	80	10	30	50	80	70	70	40	30	90	30		0	0	0	0	Plant response rating (0 to 100 scale), Pigweed ([1]; 31 g ai/ha): 0; Plant response rating (0 to 100 scale), Ragweed ([2]; 31 g ai/ha): 0; Plant response rating (0 to 100 scale), Barnyardgrass ([3]; 31 g ai/ha): 0; Plant response rating (0 to 100 scale), Ryegrass, It. ([4]; 31 g ai/ha): 20; Plant response rating (0 to 100 scale), Foxtail, Giant ([5]; 31 g ai/ha): 0; Plant response rating (0 to 100 scale), Kochia ([6]; 31 g ai/ha): 0; Plant response rating (0 to 100 scale), Pigweed [7, 21]: 20; Plant response rating (0 to 100 scale), Galium [8, 21]: 60; Plant response rating (0 to 100 scale), Ragweed [9, 21]: 30; Blackgrass plant response rating ([10]; 31 g ai/ha): 10; Barnyardgrass plant response rating ([11]; 31 g ai/ha): 10; Plant response rating (0 to 100 scale), Wheat [12, 21]: 0; Plant response rating (0 to 100 scale), Ryegrass, It. [13, 21]: 50; Plant response rating (0 to 100 scale), Foxtail, Giant [14, 21]: 10; Plant response rating (0 to 100 scale), Corn [16, 21]: 0; Sedge, Umbrella plant response rating (0 to 100 scale, 0 is no effect, 100 is complete control) [20]: 0
CCC(=O)Oc1c(C)nn(C)c(=O)c1-c1ccc(Cl)c2sccc12 [Compound 58]	0		80	0	50	0	70	20	90	0	0	0	0	10	0	60	0	0	0	0	Plant response rating (0 to 100 scale), Pigweed ([1]; 31 g ai/ha): 20; Plant response rating (0 to 100 scale), Ragweed ([2]; 31 g ai/ha): 0; Plant response rating (0 to 100 scale), Barnyardgrass ([3]; 31 g ai/ha): 0; Plant response rating (0 to 100 scale), Ryegrass, It. ([4]; 31 g ai/ha): 0; Plant response rating (0 to 100 scale), Foxtail, Giant ([5]; 31 g ai/ha): 20; Plant response rating (0 to 100 scale), Kochia ([6]; 31 g ai/ha): 0; Pigweed plant response rating ([7]; 31 g ai/ha): 0; Galium plant response rating ([8]; 31 g ai/ha): 20; Ragweed plant response rating ([9]; 31 g ai/ha): 0; Blackgrass plant response rating ([10]; 31 g ai/ha): 0; Barnyardgrass plant response rating ([11]; 31 g ai/ha): 0; Wheat plant response rating ([12]; 31 g ai/ha): 0; Ryegrass, It. plant response rating ([13]; 31 g ai/ha): 0; Foxtail, Giant plant response rating ([14]; 31 g ai/ha): 0; Kochia plant response rating ([15]; 31 g ai/ha): 0; Corn plant response rating ([16]; 31 g ai/ha): 0
Cc1cnc2sc(C)c(-c3c(OC(=O)C4CC4)c(C)nn(C)c3=O)c2c1 [Compound 9]	0	30		0	30	0	0	50	50	10	0	0	0	30	0	40	0				Plant response rating (0 to 100 scale), Ragweed ([2]; 500 g ai/ha): 30; Plant response rating (0 to 100 scale), Barnyardgrass ([3]; 500 g ai/ha): 0; Plant response rating (0 to 100 scale), Ryegrass, It. ([4]; 500 g ai/ha): 70; Plant response rating (0 to 100 scale), Foxtail, Giant ([5]; 500 g ai/ha): 40; Plant response rating (0 to 100 scale), Kochia ([6]; 500 g ai/ha): 30; Pigweed plant response rating ([7]; 500 g ai/ha): 80; Galium plant response rating ([8]; 500 g ai/ha): 60; Ragweed plant response rating ([9]; 500 g ai/ha): 30; Blackgrass plant response rating ([10]; 500 g ai/ha): 20; Barnyardgrass plant response rating ([11]; 500 g ai/ha): 20; Wheat plant response rating ([12]; 500 g ai/ha): 0; Ryegrass, It. plant response rating ([13]; 500 g ai/ha): 60; Foxtail, Giant plant response rating ([14]; 500 g ai/ha): 40; Kochia plant response rating ([15]; 500 g ai/ha): 50; Corn plant response rating ([16]; 500 g ai/ha): 0
